Several values for one entry are separate records, joined by “and”; a condition that tells them apart may be missing. Equal values may be shown once.
How the values were obtained:
[1] = tested on: Septoria tritici; assay: Septoria tritici test (wheat)/protective; assay type: in vivo; settings: in vivo
Protocol: (§1) Solvent: 49 parts by weight of N,N-dimethylacetamide
(§2) Emulsifier: 1 part by weight of alkylaryl polyglycol ether
To produce a suitable preparation of active compound, 1 part by weight of active compound is mixed with the stated amount of solvent and emulsifier, and the concentrate is diluted with water to the desired concentration.
To test for protective activity, young plants are sprayed with the active compound preparation at the stated application rate. After the spray coating has dried on, the plants are sprayed with a spore suspension of Septoria tritici. The plants remain in an incubation cabin at 20° C. and 100% relative atmospheric humidity for 48 hours. The plants are then placed under a translucent hood at 15° C. and 100% relative atmospheric humidity for a further 60 hours.
The plants are placed in a greenhouse at a temperature of about 15° C. and a relative atmospheric humidity of 80%.
Evaluation is carried out 21 days after the inoculation. 0% means an efficacy which corresponds to that of the control, whereas an efficacy of 100% means that no infection is observed.

[2] = tested on: Botrytis cinerea; assay: Botrytis test (bean)/protective; assay type: in vivo; settings: 100 ppm active compound, protective, evaluation 2 days after inoculation
Protocol: (§3) Solvents: 24.5 parts by weight of acetone
(§4) • 24.5 parts by weight of dimethylacetamide Emulsifier: 1 part by weight of alkylaryl polyglycol ether
(§5) To produce a suitable preparation of active compound, 1 part by weight of active compound is mixed with the stated amounts of solvents and emulsifier, and the concentrate is diluted with water to the desired concentration.
To test for protective activity, young plants are sprayed with the active compound preparation at the stated application rate. After the spray coating has dried on, 2 small pieces of agar colonized by Botrytis cinerea are placed onto each leaf. The inoculated plants are placed in a dark chamber at about 20° C. and 100% relative atmospheric humidity.
2 days after the inoculation, the size of the infected areas on the leaves is evaluated. 0% means an efficacy which corresponds to that of the control, whereas an efficacy of 100% means that no infection is observed.

[3] = tested on: Uromyces appendiculatus; assay: Uromyces test (bean)/protective; assay type: in vivo; settings: in vivo
Protocol: as §3, §4, §5
(§6) To test for protective activity, young plants are sprayed with the active compound preparation at the stated application rate. After the spray coating has dried on, the plants are inoculated with an aqueous spore suspension of the bean rust pathogen Uromyces appendiculatus and then remain in an incubation cabin at about 20° C. and 100% relative atmospheric humidity for 1 day.
(§7) The plants are then placed in a greenhouse at about 21° C. and a relative atmospheric humidity of about 90%.
(§8) Evaluation is carried out 10 days after the inoculation. 0% means an efficacy which corresponds to that of the control, whereas an efficacy of 100% means that no infection is observed.

[4] = tested on: Puccinia triticina; assay: Puccinia triticina test (wheat)/protective; assay type: in vivo; settings: in vivo
Protocol: Solvent: 49 parts by weight of […]
as §2
(§9) To produce a suitable preparation of active compound, 1 part by weight of active compound is mixed with the stated amounts of solvent and emulsifier, and the concentrate is diluted with water to the desired concentration.
(§10) To test for protective activity, young plants are sprayed with the active compound preparation at the stated application rate.
After the spray coating has dried on, the plants are sprayed with spores of a spore suspension of Puccinia triticina. The plants remain in an incubation cabin at 20° C. and 100% relative atmospheric humidity for 48 hours.
The plants are placed in greenhouse at a temperature of about 20° C. and a relative atmospheric humidity of about 80%.
Evaluation is carried out 8 days after the inoculation. 0% means an efficacy which corresponds to that of the control, whereas an efficacy of 100% means that no infection is observed.

[5] = tested on: Alternaria solani; assay: Alternaria test (tomato)/protective; assay type: in vivo; settings: in vivo
How it was run: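 Young tomato plants were sprayed with compound (DMF/emulsifier formulation diluted in water) and inoculated with A. solani spores 1 day later. Plants were kept 24 h at 100% RH and 22 °C, then at 96% RH and 20 °C. Efficacy was scored 7 days post-inoculation, where 0% equals untreated control and 100% means no infection.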

[6] = tested on: Leptosphaeria nodorum; assay: Leptosphaeria nodorum test (wheat)/protective; assay type: in vivo; settings: in vivo
How it was run: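 Young wheat plants were sprayed protectively, then inoculated 1 day later with L. nodorum spores and held 48 h at 100% humidity and 22° C. They were then kept in a greenhouse at 90% humidity and 22° C. Efficacy was scored 7-9 days post-inoculation, where 0% equals control and 100% means no infection.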

[7] = tested on: Fusarium nivale (var. majus); assay: Fusarium nivale (var. majus) test (wheat)/protective; assay type: in vivo; settings: 1000 ppm active compound, protective, evaluation 5 days after inoculation
Protocol: as §1, §2, §9, §10
After the spray coating has dried on, the plants are sprayed with spores of a spore suspension of Fusarium nivale (var. majus).
The plants are placed in a greenhouse chamber under a translucent incubation hood at 10° C. and 100% relative atmospheric humidity.
Evaluation is carried out 5 days after the inoculation. 0% means an efficacy which corresponds to that of the control, whereas an efficacy of 100% means that no infection is observed.

[8] = tested on: Venturia inaequalis; assay: Venturia test (apple)/protective; assay type: in vivo; settings: 100 ppm active compound, protective, evaluation 10 days after inoculation
Protocol: Solvents: 24.5 parts by weight of acetone • 24.5 parts by weight of dimethylacetamide Emulsifier: 1 part by weight of alkylaryl polyglycol ether
as §5
as §6, with “conidia” for “spore”, “apple scab” for “bean rust”, “Venturia inaequalis” for “Uromyces appendiculatus”
as §7, §8

[9] = tested on: Fusarium graminearum; assay type: in vivo; settings: in vivo
[10] = tested on: Pyrenophora teres; assay: Pyrenophora teres test (barley)/protective; assay type: in vivo; settings: in vivo
How it was run: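 Protective test: young barley plants sprayed at the stated rate with compound in DMF/alkylaryl polyglycol ether diluted with water, inoculated with P. teres spores 1 day later, kept 48 h at 100% rel. humidity and 22° C., then greenhouse at 80% and 20° C. Efficacy scored 7-9 days post-inoculation (0% = control, 100% = no infection).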

[11] = tested on: Phytophthora infestans; assay type: in vivo; settings: in vivo
[12] = tested on: Sphaerotheca fuliginea; assay: Sphaerotheca test (cucumber)/protective; assay type: in vivo; settings: in vivo
How it was run: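 Protective test: young cucumber plants sprayed with compound (DMF/alkylaryl polyglycol ether concentrate diluted in water) at the stated rate, inoculated with S. fuliginea spores 1 day later, then kept in greenhouse at 23 °C, 70% RH. Efficacy scored 7 days post-inoculation; 0% equals untreated control, 100% means no infection.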

[13] = tested on: Fusarium graminearum; assay: microbe, parasite or virus in culture; assay type: cell-based; settings: 50 μM
[14] = tested on: DON/AcDON production; assay: microbe, parasite or virus in culture; assay type: cell-based, Fusarium graminearum; settings: 7 days at 28° C.

Row | SMILES | efficacy in % [1] | efficacy in % [2] | efficacy in % [3] | efficacy in % [4] | efficacy in % [5] | efficacy in % [6] | efficacy in % [7] | efficacy in % [8] | efficacy in % [9] | efficacy in % [10] | efficacy in % [11] | efficacy in % [12] | % inhibition of the fungal growth of Fusarium graminearum at 50 μM [13] | % inhibition of DON/AcDON at 50 μM [14]
1 | CC(C)C(=O)Nc1cc(-c2c(-c3ccc(F)cc3)nn3c2CCC3C)ccn1 (centres unmarked) [Example 77] | 100% | 100% | 98% | 88% | 89% | 94% | 100% | 100% | 90% |  |  |  |  | 
2 | CCC(=O)Nc1cc(-c2c(-c3ccc(F)cc3)nn3c2CCC3)ccn1 [Example 40] | 90% | 100% | 81% and 75% | 100% | 100% | 95% | 100% | 94% | 100% | 95% | 70% | 94% |  | 
3 | CC(=O)Nc1cc(-c2c(-c3ccc(F)cc3)nn3c2CCCC3)ccn1 [Example 15] | 100% | 82% | 94% | 94% | 100% | 95% | 100% | 94% | 100% | 100% | 95% | 98% | 88% | 99%
4 | CC(=O)Nc1cc(-c2c(-c3ccsc3)nn3c2CCCC3)ccn1 [Example 58] | 89% | 100% |  | 100% | 80% | 94% | 100% | 99% | 100% | 90% | 70% | 96% | 100% | 100%
5 | CC(C)C(=O)Nc1cc(-c2c(-c3ccsc3)nn3c2CCCC3)ccn1 [Example 63] | 100% | 94% | 75% | 86% | 100% | 94% | 83% | 99% | 83% | 95% | 95% | 93% | 100% | 100%
6 | CC1CCc2c(-c3ccncc3F)c(-c3ccc(F)cc3)nn21 (centres unmarked) [Example 117] | 100% | 100% | 90% | 100% | 94% | 86% | 100% | 100% | 100% | 100% |  | 95% |  | 
7 | CCC(=O)Nc1cc(-c2c(-c3ccccc3)nn3c2CCCC3)ccn1 [Example 8] | 100% | 99% | 100% | 100% | 100% | 95% | 100% | 96% | 88% | 100% | 95% | 99% | 100% | 99%
8 | CCC(=O)Nc1cc(-c2c(-c3ccc(F)cc3)nn3c2CCC3C)ccn1 (centres unmarked) [Example 76] | 100% | 100% | 95% | 88% | 100% | 89% | 100% | 100% | 90% |  |  | 100% |  | 
9 | C[C@H](O)C(=O)Nc1cc(-c2c(-c3ccc(F)cc3)nn3c2CCCC3)ccn1 [Example 24] | 100% | 76% | 91% | 100% | 95% | 90% | 100% | 83% | 100% | 95% | 90% | 94% | 74% | 99%
10 | O=C(Nc1cc(-c2c(-c3ccc(F)cc3)nn3c2CCCC3)ccn1)c1ccccc1 [Example 32] | 100% | 98% | 96% | 89% | 78% | 90% | 86% | 90% | 86% | 78% | 70% |  | 94% | 99%
11 | O=C(Nc1cc(-c2c(-c3ccsc3)nn3c2CCCC3)ccn1)C1CC1 [Example 65] | 90% | 97% | 95% | 86% | 100% | 94% | 100% | 96% | 83% | 95% | 90% | 100% | 100% | 100%
12 | O=CNc1cc(-c2c(-c3ccc(F)cc3)nn3c2CCCC3)ccn1 [Example 36] | 100% |  | 85% | 78% |  | 90% | 88% |  | 93% | 89% | 80% | 94% | 94% | 99%

From US8507472B2 (priority 2010, dated 2013)
